Entries after “also recorded” stand apart in the source; their conditions may differ. Read-outs that look alike come from different tables or passages of the source.
Assays:
0.1MCD-fed mice = experiment: 0.1% methionine- and choline-deficient (0.1MCD) diet mouse model of NASH; type: in vivo
Text: The study described below investigates the mechanism of action of Aramchol™ and its potential effect on fibrosis using the 0.1% methionine- and choline-deficient (0.1MCD) diet mouse model of NASH.
C57BI/6 were fed the Methionine and Choline Deficient (MCD) and control diet and were sacrificed after 4 weeks. The MCD diet induces aminotransferase elevation and changes in hepatic histological features, characterized by steatosis, local inflammation, hepatocyte necrosis and fibrosis. These changes occur rapidly and are morphologically similar to those observed in human NASH. In this study the MCD diet contained 0.1% methionine to minimize and stabilize weight loss. At the end of the second week, after verification of established NASH, 0.1MCD-fed mice were treated orally by gavage with Aramchol™ (5 mg/Kg/day) or vehicle (n=10, each condition). Control diet-fed mice were also treated with vehicle for same duration (n=10). At the end of the experiment, blood and liver samples were obtained. A diagram of the experimental design is shown below: […]

Wistar rats = experiment: Thioacetamide (TAA)-induced fibrosis, model for hepatic cirrhosis; type: in vivo; settings: 5 mg/kg, co-administered with TAA during 10 weeks
Procedure: Liver fibrosis was induced in Wistar rats by intraperitoneal injections of TAA (20 mg/100 gr body weight) twice per week during 10 weeks. I.p. application of TAA results in hepatic centrolobular necrosis, elevated transaminase activity and robust liver fibrosis. Treatment groups further included co-administration of Aramchol™ (1 or 5 mg/kg orally) or obaticholic acid (OCA, 5 mg/kg). A control group of saline-treated rats (in the absence of TAA administration) was further included. Rats were then sacrificed, and livers were observed macroscopically for signs of cirrhosis and necrotic lesions, and microscopically, following Masson Goldner staining. The fibrosis score, calculated at a scale of 0-4, was determined for each sample, wherein 0 indicates no fibrosis and 4 indicates advanced fibrosis and cirrhosis.

[1] = tested on: Primary hepatocytes from C57BL/6 mice; experiment: PPARγ mRNA expression in primary hepatocytes (qPCR); type: cell-based; settings: Aramchol 10 μM, 48 hours
Procedure: Serum-starved LX2 cells were treated with Aramchol™ (10 μM) for 24 or 48 hours. Fibrogenic gene expression and SCD-1 protein expression were measured by qPCR and Western, respectively. RNAseq was performed at 24 and 48 h in duplicate. Differential gene expression was assessed with DSeq2, while gene set enrichment analysis (GSEA) and gene ontology (GO) analyses assessed functionality of gene expression changes. Primary hepatocytes from C57BL/6 mice were harvested by perfusion and treated with Aramchol™ ([…]) for 48 hours in culture. PPAR γ mRNA expression was measured by qPCR.

[2] = Phase 2b steady state trough (Cmin) plasma concentration in patients; type: in vivo, human; settings: for AUC/Dose / Relative bioavailability (AUC/Dose normalized to 30 mg HV data) / concentration at 84 day / AUC: patients; for AUC/Dose / Relative bioavailability (AUC/Dose normalized to 30 mg HV data) / concentration at 84 day: D84; for concentration at 84 day: read-out: SS Cmin; for AUC: estimated from observed Cmin on D84*24 h
Text: Blood sample for Aramchol™ trough level will be collected (pre-dose) from patients in Israel at baseline (visit 2) week 4 (visit 4), week 12 (visit 6), week 24 (visit 7), week 40 (visit 9), end of treatment (visit 10) and follow up (visit 11). At selected sites in Mexico, USA and Hong Kong one blood sample will be collected (pre-dose) on visit 4 (up to 10 subjects per country) to test for trough Aramchol™ blood level differences between populations (e.g., African American, Asian, Hispanic).
Table 1 summarizes the reported plasma exposure from three studies-single dose Phase I in healthy volunteers (30-900 mg, AUC=AUCinf); Phase II ARAMCHOL™ 003 repeat dose study (AUC on D84 from 100 & 300 mg QD), Phase IIb Cmin on D84 (400 and 600 mg QD).
The steady state (day 84) Cmin in patients at 400 mg and 600 mg has been measured. […] Again, this may reflect inter-subject variability or a difference in the excipients used in the tablets.

[3] = Modelling and simulation of 300 mg BID and 600 mg QD doses in patients (Phoenix 64, single compartment); set-up: species or system human; settings: correction for sub-proportional PK
Procedure: Given the sub-proportional exposure generally seen, splitting the same total daily dose into two BID doses is likely to increase plasma AUC. The aim of this analysis was to model this behavior.
The 300 mg data on day 1 and day 84 in patients (Phase 2 ARAMCHOL™ 003) has been modelled in Phoenix 64@ assuming single compartment pharmacokinetics (parameterized by Cl and V) and first order absorption at a rate Ka with a delay, Tlag. The fitted model parameters all have a CV<25% and the predicted concentration data reasonably capture the observed data as shown in FIGS. 13A-13C.
To predict exposure at 600 mg, a correction for sub-proportional PK (lower bioavailability at higher dose) has been made assuming the same non-linearity at observed in healthy volunteers.

[4] = tested on: pts with pre-diabetes or diabetes and biopsy-proven NASH; experiment: Global phase 2b randomized placebo-controlled ARREST trial, one-year results; type: in vivo, human
Procedure: Overweight/obese pts with pre-diabetes or diabetes and biopsy-proven NASH (with NAS≥4; F<4) were included. Liver biopsy and liver fat measurement by MR spectroscopy (LF-MRS) were performed at baseline and week 52. Both read centrally. The primary endpoint was the absolute change from baseline in LF-MRS (600 mg vs. placebo, PLB; mixed model repeated measures). Key secondary endpoints included: NASH resolution without fibrosis worsening, ≥1 stage fibrosis reduction without NASH worsening and ALT reduction. 247 pts from 11 countries (US, Europe, Latin America) were randomized 2:2:1 to Aramchol™ 400 mg QD (N=101), 600 mg QD (N=98) or PLB (N=48). At baseline: 65% females, mean age 54.4 yrs, BMI 32.7 kg/m2, HbA1c 6.6%±1.0% (mean±SD), LF-MRS 28.5%±11.7% (mean±SD); 60% fibrosis stage 2-3 and NAS 5.12±1.00 (mean±SD). 89% of pts completed the study. The results of the study are summarized in FIGS. 16A-16B to FIGS.-20A-20B.

[5] = 5 mg/Kg/day orally by gavage from end of second week to week 4
[6] = 5 mg/Kg/day orally by gavage, liver

SMILES: CCCCCCCCCCCCCCCCCCCC(=O)N[C@H]1CC[C@@]2(C)[C@@H](C1)C[C@@H](O)[C@@H]1[C@@H]2C[C@H](O)[C@]2(C)[C@@H]([C@H](C)CCC(=O)O)CC[C@@H]12 [Aramchol™, 3β-arachidylamido-7α, 12α-dihydroxy-5β-cholan-24-oic acid]
- hepatic content of diglycerides (DG) and TG (0.1MCD-fed mice; 5 mg/Kg/day orally by gavage): reduction
- GSH/GSSG ratio (0.1MCD-fed mice; [5]): elevates; also recorded: normalization
- collagen in the liver (liver extract) (0.1MCD-fed mice; [5]): significantly down regulates
- fibrosis in the liver (sirius red) (0.1MCD-fed mice; [5]): significantly down regulates/normalizes
- glutathione in liver (0.1MCD-fed mice; [5]): significantly up regulates
- infiltration and activation status of macrophages in the liver (F4/80, CD64) (0.1MCD-fed mice; [5]): significantly down regulates/normalizes
- steatosis in the liver (Sudan III) (0.1MCD-fed mice; [5]): significantly down regulates
- FA(16:1)/FA(16:0) ratio (0.1MCD-fed mice; [6]): marked decrease
- SCD1 activity (0.1MCD-fed mice; [6]): reduced
- SCD1 expression (0.1MCD-fed mice; [6]): marked decrease
- content of total oxFA including oxLA (0.1MCD-fed mice; [6]): marked reduction
- total content of monounsaturated FA (MUFA) (0.1MCD-fed mice; [6]): marked decrease
- TAA induced fibrosis (Wistar rats): significantly prevented
- development of necrosis and cirrhosis (macroscopic) (Wistar rats): reduced significantly; also recorded: significantly inhibited
- fibrotic score and collagen distribution in the tissue (Masson Goldner staining) (Wistar rats; score scale 0-4): reduced significantly
- PPARγ mRNA expression (qPCR) [1]: does not affect
- AUC/Dose ([2]; 400 mg QD): 172 ng/mL · h/(mg/kg)
- Relative bioavailability (AUC/Dose normalized to 30 mg HV data) ([2]; 400 mg QD): 0.43
- AUC/Dose ([2]; 600 mg QD): 144 ng/mL · h/(mg/kg)
- Relative bioavailability (AUC/Dose normalized to 30 mg HV data) ([2]; 600 mg QD): 0.36
- half-life ([2]; human, plasma, oral): > 1440 min
- concentration at 84 day ([2]; human, plasma, oral, 400 mg QD): 2860 ng/mL
- AUC ([2]; human, plasma, oral, 400 mg QD): 68600 ng·h/mL
- concentration at 84 day ([2]; human, plasma, oral, 600 mg QD): 3610 ng/mL
- AUC ([2]; human, plasma, oral, 600 mg QD): 86700 ng·h/mL
- relative bioavailability at 600 mg compared to 300 mg [3]: approximately 0.75 fold
- pts progressed to cirrhosis ([4]; 400 mg QD, week 52): 7.5%
- pts with ≥5% absolute reduction in liver fat ([4]; 400 mg QD, week 52): 37%
- liver fat by MR spectroscopy (LF-MRS), absolute change from baseline vs PLB ([4]; 400 mg QD, week 52, p=0.045): significantly reduced
- effect on ballooning (improvement ≥1 point; ballooning 0 at end of study) ([4]; 600 mg): statistically significant effect
- pts progressed to cirrhosis ([4]; 600 mg QD, week 52): 1.3%
- liver fat by MR spectroscopy (LF-MRS), absolute change from baseline vs PLB ([4]; 600 mg QD, week 52, p<0.066): significantly reduced
- pts with NASH resolution without fibrosis worsening ([4]; 600 mg QD, week 52, vs 5.0% PLB): 16.7%
- pts with ≥1 stage fibrosis reduction without NASH worsening ([4]; 600 mg QD, week 52, vs 17.5% PLB (p=0.21)): 29.5%
- pts with ≥5% absolute reduction in liver fat ([4]; 600 mg QD, week 52, vs 24% on PLB (p<0.028)): 47%
- OR for NASH resolution without fibrosis worsening vs PLB ([4]; 600 mg QD, 95% CI: 0.99-22.66, p=0.051): 4.74
- Discontinuation due to adverse events (AE) ([4]; 1-year treatment): < 5%
- serious AE, pts ([4]; 1-year treatment, without a difference between arms): 10%
- ALT vs PLB ([4]; both doses (400 mg and 600 mg QD), p<0.001, dose response): significantly reduced
- HbA1c vs PLB ([4]; both doses (400 mg and 600 mg QD), p<0.007, dose response): significantly reduced
- AST vs PLB ([4]; both doses (400 mg and 600 mg QD), p=0.002, dose response): significantly reduced
- safety and tolerability ([4]; one year): excellent safety and tolerability

From US20250332176A1, “TREATMENT FOR FIBROSIS AND INHIBITION OF FIBROSIS” (GALMED RESEARCH AND DEVELOPMENT LTD, priority 2022, published 2025)
